Broadly, the ED50 is the dose that gives a 50% effect, or the effect in half of the subjects. A word on the inhibition: it is how much of the control response was suppressed. Low values mean a response near the control, high ones a response far below the control. As usually defined, the IC50 is the midpoint of a concentration-inhibition curve. A lower IC50 goes with greater potency in that assay.

Structures are written as SMILES. Activity calls are given as the source filed them. The calls are words filed in the database; no cut-off is given here.

The subject of assay [1] is Cavia porcellus. Kind of assay: Ability to inhibit histamine phase of antigen-induced bronchoconstriction in vivo in pulmonary function assays in which Guinea pigs were dosed orally 5 hours prior to test at 10 uM/kg; Not active. It counts as functional, organism-based.
Assay [2] addresses T1, Polyunsaturated fatty acid 5-lipoxygenase (Homo sapiens) (UniProt P09917).
T1 sequence (whole entry): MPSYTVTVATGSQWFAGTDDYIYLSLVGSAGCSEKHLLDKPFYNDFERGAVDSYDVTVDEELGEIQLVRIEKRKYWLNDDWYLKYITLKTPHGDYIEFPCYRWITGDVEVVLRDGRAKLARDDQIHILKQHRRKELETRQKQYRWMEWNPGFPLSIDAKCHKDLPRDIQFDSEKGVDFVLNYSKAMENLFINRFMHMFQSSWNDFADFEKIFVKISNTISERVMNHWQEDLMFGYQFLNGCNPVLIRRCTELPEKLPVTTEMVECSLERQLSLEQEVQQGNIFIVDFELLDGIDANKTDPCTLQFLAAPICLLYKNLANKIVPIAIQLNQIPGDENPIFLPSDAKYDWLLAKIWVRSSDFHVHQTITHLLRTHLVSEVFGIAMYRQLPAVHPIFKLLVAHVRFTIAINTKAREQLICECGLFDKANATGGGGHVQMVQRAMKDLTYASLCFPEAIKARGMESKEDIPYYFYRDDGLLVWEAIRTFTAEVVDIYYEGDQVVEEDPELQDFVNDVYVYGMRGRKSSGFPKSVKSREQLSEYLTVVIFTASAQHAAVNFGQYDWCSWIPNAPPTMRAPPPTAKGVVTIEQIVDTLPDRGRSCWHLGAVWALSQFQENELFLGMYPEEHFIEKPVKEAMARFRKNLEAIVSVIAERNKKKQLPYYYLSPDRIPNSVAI
Description: (§1) Inhibitory activity uM. It counts as functional. The note with it: Cavia porcellus; concentration not given here.

The species entered for assay [3] is Oryctolagus cuniculus. Kind of assay: Test against PAF-induced aggregation of rabbit platelets in vitro. Format: functional.
For assay [4], the species on record is Cavia porcellus. Kind of assay: Ability to inhibit histamine-induced contractions of isolated guinea pig ileum. It counts as functional.
The species named for assay [5] is Rattus norvegicus. Kind of assay: Inhibition of cutaneous histamine reaction in rats. Format: functional.
Assay [6] is filed under the species Cavia porcellus. Kind of assay: Ability to inhibit histamine-induced contractions of isolated guinea pig ileum at 10e-6 M; Not active. Format: functional.
Assay [7] has as its system Cavia porcellus. Description: Ability to inhibit histamine phase of platelet activating factor (PAF)-induced bronchoconstriction in vivo in pulmonary function assays in which Guinea pigs were dosed orally 5 hours prior to test. It counts as functional. As to conditions: po.
Assay [8] concerns Cavia porcellus. Kind of assay: Ability to inhibit histamine phase of antigen-induced bronchoconstriction in vivo in pulmonary function assays in which Guinea pigs were dosed orally 5 hours prior to test. It counts as functional. As to conditions: po.
In assay [9] the test system is Rattus norvegicus. Kind of assay: Antiallergic activity in the rat PCA assay following oral administration 1 hour before antigen challenge. Five animals were used in this experiment. Format: functional.
The target of assay [10] is T1, Polyunsaturated fatty acid 5-lipoxygenase (Homo sapiens). Description: Inhibitory activity against partially-purified Guinea pig PMN 5-lipoxygenase at 10 uM. The note with it: Cavia porcellus, target entry is the homologue from another species.
Assay [11] shares this target. Described as §1. The note with it: Cavia porcellus; concentration not given here.

`CC(c1cc2ccccc2s1)N(O)C(N)=O` (stereo not drawn): the ED50 entry in [1] was “inactive”.
With `Cc1ccnc(N2CCN(CCc3c(C)n4c5c(cc(N)cc35)CCC4)CC2)c1`, the inhibition in assay [2] came to 64%. Also, the IC50 in [3] came out at 84 µM; in assay [4], 80 nM. In assay [5], this molecule had an ED50 of 2.5 µmol/kg.
As for `O=C(c1ccccc1)c1cccc(NC(=O)c2ccn3c2CS[C@@H]3c2cccnc2)c1` [TULOPAFANT], the ED50 entry in assay [1] was “inactive”. Also, the IC50 entry in [6] is listed as “Not Active”. The same molecule yielded an ED50 in [7] of 5.5 µmol/kg.
On to `CN1CCC(=C2c3ccccc3CC(=O)c3sccc32)CC1` [KETOTIFEN], for which the results for the IC50 in assay [3] and in assay [4] were over 100 µM and 6.4 nM, respectively. Further, the ED50 was 0.31 µmol/kg in [8], 0.44 µmol/kg in assay [9] and 0.16 µmol/kg in assay [5].
On to `Cc1ccnc(N2CCN(CCc3c(C)n4c5c(cc(C(=O)C(C)C)cc35)CCC4)CC2)c1`, for which the IC50 in assay [3] came out at 1.9 µM; in assay [4], 37 nM. In assay [10], the inhibition amounted to 36%. The same molecule yielded a 50% effective dose (ED50) in assay [5] of 2.9 µmol/kg.
The molecule `CCCCC1CCc2cc(O)cc3c(CCN4CCN(c5cc(C)ccn5)CC4)c(C)n1c23` (stereo not drawn) showed an inhibition in assay [11] of 100%. Further, the results for the IC50 in assay [3] and in [4] were 2 µM and 260 nM, respectively. Moreover, the ED50 was 1.9 µmol/kg in assay [8], 2.1 µmol/kg in [7], 0.9 µmol/kg in assay [9] and 2.8 µmol/kg in [5].
Regarding `CN1CCCC(n2nc(Cc3ccc(Cl)cc3)c3ccccc3c2=O)CC1` (stereo not drawn) [AZELASTINE], the figures for the 50% inhibitory concentration (IC50) in assay [3] and in [4] were over 100 µM and 20 nM, respectively. The ED50 in [9] was 7 µmol/kg; in [5] it was 3.3 µmol/kg.
